The source of these data is patent US10322107B2, “N-methyl-N-(1-phenyl-2-(1-pyrrolidinyl)ethyl)-2-aminophenylacetamide derivatives agonists for the kappa opioid receptor” (Nektar Therapeutics, priority 2014, dated 2019).

In general, Ki refers to a dissociation constant, usually derived from enzyme kinetics or from competition with a known ligand. For orientation: IC50 means the midpoint of a concentration-inhibition curve. As usually defined, the EC50 is the concentration giving half of the maximal effect. For orientation: inhibition means the relative decrease from the control value, in per cent.

Molecules are shown by their SMILES. Like-named read-outs stand apart in the source and are kept apart here.

Test [1] has as its target recombinant human kappa (KOR) opioid receptor (Homo sapiens, UniProt P41145). Description: Competitive radioligand binding at KOR ([3H]diprenorphine), CHO-K1 membranes.
Test [2] addresses T1, KOR (kappa opioid receptor) (Homo sapiens, UniProt P41145).
T1 construct: expressed in transfected cells
Put plainly: Inhibition of cAMP accumulation in forskolin-stimulated CHO-K1 cells stably expressing KOR. Format: cell-based. In general terms: Changes in cAMP serve as a functional read-out for many G protein-coupled receptors.

The target of test [3] is T2, recombinant human mu (MOR) opioid receptor (Homo sapiens, UniProt P35372).
T2 construct: expressed in transfected cells; host or cells: CHO-K1 cells (membranes)
Description: Competitive radioligand binding at MOR ([3H]naloxone), single concentration, CHO-K1 membranes. Particulars: 10 μM test compound; percent inhibition of specific [3H]naloxone (4 nM) binding; read-out: Mu Opioid Receptor Mu Receptor Inhibition % inhib @ 10 uM. As for the experimental part:
The binding affinities of certain compounds of the present invention were evaluated using radioligand binding assays in membranes prepared from CHO-K1 cells expressing recombinant human kappa (KOR) or mu (MOR) opioid receptors.
Competition binding experiments were conducted by incubating membrane protein to equilibrium in triplicate in the presence of a fixed concentration of radioligand and increasing concentrations of test compound for evaluation of binding to KOR or single concentration (10 μM) of test compound for evaluation of binding to MOR in 101 μL final volume. The radioligands used were specific for each receptor type, and the assay conditions are described in Table 1. Following incubations, the membranes were rapidly filtered through GF/B filter plate (presoaked with 0.5% polyethyleneimine), washed five times with cold 50 mM Tris-HCl, pH 7.5, and the bound radioactivity was then measured by liquid scintillation counting. Non-specific binding was measured in the presence of excess ligand; this value was subtracted from the total binding to yield the specific binding at each test concentration.
Ki (affinity of test compound) was obtained using the Cheng Prusoff correction using experimental Kd (affinity of radioligand) values that were previously determined under these assay conditions. For MOR binding, compounds were tested at one concentration, 10 μM, to evaluate its ability to inhibit specific radioligand binding. The values are expressed as percent inhibition of specific binding and greater than 50% inhibition of binding was considered to be significant.

Where [4] appears, read: Cheng Prusoff correction using experimental Kd of radioligand, read-out: Kappa Opioid Receptor Ki.
The mark [5] stands for this setting: read-out: Kappa Opioid Receptor IC50.

With `CN([C@H](CN1CC[C@H](O)C1)c1ccc(OCCO)cc1)S(=O)(=O)Cc1ccc(Cl)c(Cl)c1` [Example 22, 1-(3,4-Dichlorophenyl)-N-{(1S)-1-[4-(2-hydroxyethoxy)phenyl]-2-[(3S)-3-hydroxypyrrolidin-1-yl]ethyl}-N-methylmethanesulfonamide], in test [1] (setting [4]), the inhibitory constant (Ki) stood at 32.2 nM. Moreover, the half-inhibitory concentration (IC50) in test [1] (setting [5]) was 247 nM. Further, the 50% effective concentration (EC50) in test [2] stood at 15.5 nM. Further, the inhibition at 10 µM in test [3] is -10.3%.
Consider `CN(C(=O)Cc1ccc(Cl)c(Cl)c1)[C@H](CN1CC(O)C1)c1ccc(OCCO)cc1` [Example 24, (S)-2-(3,4-dichlorophenyl)-N-(2-(3-hydroxyazetidin-1-yl)-1-(4-(2-hydroxyethoxy)phenyl)ethyl)-N-methylacetamide], for which, in test [1] (setting [4]), the Ki was found to be 2.71 nM. The IC50 in test [1] (setting [5]) is 20.8 nM. The molecule also returned an EC50 in test [2] of 0.78 nM. In test [3], the inhibition at 10 µM was 40.1%.
As for `CN([C@H](CN1CC[C@H](O)C1)c1ccc(OCCO)cc1)S(=O)(=O)Cc1ccc(C(F)(F)F)cc1` [Example 23, N-{(18)-1-[4-(2-Hydroxyethoxy)phenyl]-2-[(38)-3-hydroxypyrrolidin-1-yl]ethyl}-N-methyl-1-[4-(trifluoromethyl)phenyl]methanesulfonamide], in test [1], the IC50 worked out at 1080 nM and the inhibitory constant (Ki) is 141 nM. In test [2], this molecule registered a concentration giving a half-maximal response (EC50) of 53.6 nM. For the same molecule, in test [3], the inhibition at 10 µM was -2%.
In the same order, the values of `CN(C(=O)Cc1ccc(F)c(F)c1)[C@H](CN1CC[C@H](OCCO)C1)c1ccc(OCCO)cc1` [Example 21, 2-(3,4-Difluorophenyl)-N-{(1S)-1-[4-(2-hydroxyethoxy)phenyl]-2-[(3S)-3-(2-hydroxyethoxy)pyrrolidin-1-yl]ethyl}-N-methylacetamide] are 1450 nM, 189 nM, 33.3 nM and 0%.
Take `CN(C(=O)Cc1ccc(Cl)c(Cl)c1)[C@H](CN1CCCC1)c1cccc(NS(=O)(=O)c2cccnc2Cl)c1` [Example 4, (S)—N-(1-(3-(2-chloropyridine-3-sulfonamido)phenyl)-2-(pyrrolidin-1-yl)ethyl)-2-(3,4-dichlorophenyl)-N-methylacetamide]: the Ki in test [1] (setting [4]) came out at 6.48 nM. Further, the IC50 in test [1] (setting [5]) was found to be 49.7 nM. The EC50 in test [2] was 1.75 nM. Besides, the inhibition at 10 µM in test [3] turned out to be 91.8%.
